Experimental data as given in patent EP4782448A1, “SUBSTITUTED PYRIDOTRIAZOLE COMPOUND, AND PREPARATION METHOD THEREFOR AND USE THEREOF” (Origiant Pharmaceutical Co., Ltd., priority 2023, dated 2025).
pEC50: −log10 of the molar value.

System: HT-29 cells
Experiment: In vitro assay for protection of HT-29 cells from necroptosis (TNFα/Smac mimetic/Z-VAD-FMK induction, CCK8 readout)
Format: cell-based
Details: TNFα/Smac mimetic/Z-VAD-FMK for 24 h; inhibition of necroptosis; read-out: HT-29 (EC50)

| SMILES | pEC50 |
| --- | --- |
| C[C@H](NC(=O)c1nn(C)c2ccc(-c3ccn4nc(NC(=O)C5CC5)nc4c3)cc12)c1ccc(F)cc1 [Compound 192] | > 9.00 |
| C[C@H](NC(=O)c1nn(C)c2ccc(-c3ccn4nc(NC(=O)[C@H]5CCCO5)nc4c3)cc12)c1ccc(F)cc1 [Compound 193] | > 9.00 |
| C[C@H](NC(=O)c1nn(C)c2ccc(-c3ccn4nc(NC(=O)N5CCOCC5)nc4c3)cc12)c1ccc(F)cc1 [Compound 195] | > 9.00 |
| CC(c1ccc(F)cc1)n1cnnc1-c1cn(C)c2ccc(-c3ccn4nc(NC(=O)C5CCOC5)nc4c3)cc12 (centres unmarked) [Compound 217] | 7.00 to 8.00 |
| COC1CCN(CC(=O)Nc2nc3cc(-c4ccc5c(c4)c(C(=O)N[C@@H](C)c4ccc(F)cc4)cn5C)ccn3n2)CC1 [Compound 24] | > 9.00 |
| CC(C(=O)Nc1nn(C)c2ccc(-c3ccn4nc(NC(=O)CN(C)C)nc4c3)cc12)c1ccc(F)cc1 (centres unmarked) [Compound 180] | 5.00 to 6.00 |
| CN(C)CC(=O)Nc1nc2cc(-c3ccc4c(c3)c(C(=O)N[C@H](c3ccc(F)cc3)C(F)F)cn4C)ccn2n1 [Compound 167] | > 9.00 |
| CCn1cc(C(=O)N[C@@H](CF)c2ccc(F)cc2)c2cc(-c3ccn4nc(NC(=O)N5CCOCC5)nc4c3)ccc21 [Compound 200] | > 9.00 |
| C[C@H](NC(=O)c1cn(C)c2ccc(-c3ccn4nc(NC(=O)CN5CCC(F)(F)CC5)nc4c3)cc12)c1ccc(F)cc1 [Compound 47] | > 9.00 |
| C[C@H](NC(=O)c1cn(C)c2ccc(-c3ccn4nc(NC(=O)Cn5ccnn5)nc4c3)cc12)c1ccc(F)cc1 [Compound 52] | > 9.00 |
| Cn1cc(C(=O)N[C@@H](CF)c2ccc(F)cc2)c2cc(-c3ccn4nc(NC(=O)C5CC5)nc4c3)ccc21 [Compound 114] | > 9.00 |
| Cn1cc(C(=O)N[C@@H](CF)c2ccc(F)cc2)c2cc(-c3ccn4nc(NC(=O)CN5CCCCC5)nc4c3)ccc21 [Compound 96] | > 9.00 |
| Cn1cc(C(=O)N[C@@H](CF)c2ccc(F)cc2)c2cc(-c3ccn4nc(NC(=O)C#N)nc4c3)ccc21 [Compound 102] | > 9.00 |
| Cn1cc(C(=O)N[C@@H](CF)c2ccc(F)cc2)c2cc(-c3ccn4nc(NC(=O)CCl)nc4c3)ccc21 [Compound 94] | > 9.00 |
| C[C@H](NC(=O)c1cn(C)c2ccc(-c3ccn4nc(NC5CCOC5)nc4c3)cc12)c1ccc(F)cc1 (some centres unmarked) [Compound 107] | > 9.00 |
| C[C@H](NC(=O)c1cn(C)c2ccc(-c3ccn4nc(NC(=O)[C@H]5CCCO5)nc4c3)cc12)c1cccc(F)c1 [Compound 119] | > 9.00 |
| Cn1cc(C2=NC(c3ccc(F)cc3)CO2)c2cc(-c3ccn4nc(NC(=O)C5CC5F)nc4c3)ccc21 (centres unmarked) [Compound 211] | 7.00 to 8.00 |
| C[C@H](NC(=O)c1cn(C)c2ccc(-c3ccn4nc(NC(=O)CNC5CCOC5)nc4c3)cc12)c1ccc(F)cc1 (some centres unmarked) [Compound 77] | > 9.00 |
| Cn1cc(C(=O)NC2(c3ccc(F)cc3)COC2)c2cc(-c3ccn4nc(NC(=O)C5CC5)nc4c3)ccc21 [Compound 148] | 7.00 to 8.00 |
| CC(=O)Nc1nc2cc(-c3ccc4c(c3)c(C(=O)N[C@H]3CCCc5ccc(F)cc53)cn4C)ccn2n1 [Compound 145] | 8.00 to 9.00 |
| Cn1cc(C(=O)N2N=CCC2c2ccc(F)cc2)c2cc(-c3ccn4nc(NC(=O)C5CCOC5)nc4c3)ccc21 (centres unmarked) [Compound 169] | > 9.00 |
| Cn1cc(C(=O)N[C@H]2CCCc3cc(F)ccc32)c2cc(-c3ccn4nc(NC(=O)CC#N)nc4c3)ccc21 [Compound 142] | 7.00 to 8.00 |
| COCCOCCOCC(=O)Nc1nc2cc(-c3ccc4c(c3)c(C(=O)N[C@@H](C)c3ccc(F)cc3)cn4C)ccn2n1 [Compound 25] | > 9.00 |
| CN(C)CC(=O)Nc1nc2cc(-c3ccc4c(c3)c(C(=O)N[C@@H](CF)c3ccc(F)cc3)cn4C)ccn2n1 [Compound 101] | > 9.00 |
| CCOC(=O)Nc1nc2cc(-c3ccc4c(c3)c(C(=O)N[C@@H](C)c3ccc(F)cc3)cn4C)ccn2n1 [Compound 17] | > 9.00 |
| CC(C)Nc1nc2cc(-c3ccc4c(c3)c(C(=O)N[C@@H](CF)c3ccc(F)cc3)cn4C)ccn2n1 [Compound 99] | > 9.00 |
